We go through seven compounds from ChEMBL document CHEMBL1201862, “PubChem BioAssay data set” (2004).

Activity calls are given as the source filed them. Bounds are passed on as bounds.

The target of experiment [1] is T1, Apoptotic protease-activating factor 1 (Homo sapiens, UniProt O14727).
T1 sequence (O14727 whole entry): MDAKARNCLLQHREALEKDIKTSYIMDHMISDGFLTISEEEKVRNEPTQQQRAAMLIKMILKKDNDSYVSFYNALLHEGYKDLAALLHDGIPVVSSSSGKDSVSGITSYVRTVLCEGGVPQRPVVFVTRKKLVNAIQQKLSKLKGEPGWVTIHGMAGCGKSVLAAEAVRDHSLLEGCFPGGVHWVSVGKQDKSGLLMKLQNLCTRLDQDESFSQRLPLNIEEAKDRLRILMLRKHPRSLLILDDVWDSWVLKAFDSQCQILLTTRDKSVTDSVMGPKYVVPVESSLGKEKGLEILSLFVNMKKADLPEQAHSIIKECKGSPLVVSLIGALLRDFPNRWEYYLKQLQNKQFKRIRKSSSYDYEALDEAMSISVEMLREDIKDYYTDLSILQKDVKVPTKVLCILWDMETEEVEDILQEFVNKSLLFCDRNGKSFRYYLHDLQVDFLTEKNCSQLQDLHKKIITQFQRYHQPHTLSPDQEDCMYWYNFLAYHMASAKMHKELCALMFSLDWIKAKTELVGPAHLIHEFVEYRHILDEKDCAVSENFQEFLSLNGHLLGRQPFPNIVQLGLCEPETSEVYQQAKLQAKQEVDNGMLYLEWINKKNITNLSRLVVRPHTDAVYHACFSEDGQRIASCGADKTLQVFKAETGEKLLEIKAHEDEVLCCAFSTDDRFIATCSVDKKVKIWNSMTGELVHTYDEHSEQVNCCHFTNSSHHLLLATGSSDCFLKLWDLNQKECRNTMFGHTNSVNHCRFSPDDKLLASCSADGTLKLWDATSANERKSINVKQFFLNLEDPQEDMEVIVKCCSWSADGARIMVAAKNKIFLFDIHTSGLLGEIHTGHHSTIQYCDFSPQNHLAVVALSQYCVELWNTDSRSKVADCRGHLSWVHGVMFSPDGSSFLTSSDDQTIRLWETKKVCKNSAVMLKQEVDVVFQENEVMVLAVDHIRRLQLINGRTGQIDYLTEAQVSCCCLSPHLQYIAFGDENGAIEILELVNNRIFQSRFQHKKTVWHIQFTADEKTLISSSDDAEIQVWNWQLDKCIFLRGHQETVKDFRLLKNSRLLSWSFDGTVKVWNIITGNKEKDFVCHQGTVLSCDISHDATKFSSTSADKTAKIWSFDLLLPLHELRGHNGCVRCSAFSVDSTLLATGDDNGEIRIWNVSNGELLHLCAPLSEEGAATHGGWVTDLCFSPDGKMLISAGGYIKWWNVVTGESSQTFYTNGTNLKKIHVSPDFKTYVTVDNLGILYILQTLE
Format: functional.

In experiment [2] the test system is INS1. Kind of experiment: beta cell apoptosis inhibitors, cytokine rescue, dose response, luminescence, retest (AID 449756).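 Note: cell death triggered by IL-1 beta plus TNF-alpha plus IFN-gamma mixture; protective hits raise ATP signal compared with cytokine alone wells.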 The experiment is classed as functional, cell-based. Particulars: Rattus norvegicus.
For experiment [3], the target named is T2, Replicative DNA helicase DnaB (Mycobacterium tuberculosis, UniProt P9WMR3).
T2 sequence (P9WMR3 whole entry): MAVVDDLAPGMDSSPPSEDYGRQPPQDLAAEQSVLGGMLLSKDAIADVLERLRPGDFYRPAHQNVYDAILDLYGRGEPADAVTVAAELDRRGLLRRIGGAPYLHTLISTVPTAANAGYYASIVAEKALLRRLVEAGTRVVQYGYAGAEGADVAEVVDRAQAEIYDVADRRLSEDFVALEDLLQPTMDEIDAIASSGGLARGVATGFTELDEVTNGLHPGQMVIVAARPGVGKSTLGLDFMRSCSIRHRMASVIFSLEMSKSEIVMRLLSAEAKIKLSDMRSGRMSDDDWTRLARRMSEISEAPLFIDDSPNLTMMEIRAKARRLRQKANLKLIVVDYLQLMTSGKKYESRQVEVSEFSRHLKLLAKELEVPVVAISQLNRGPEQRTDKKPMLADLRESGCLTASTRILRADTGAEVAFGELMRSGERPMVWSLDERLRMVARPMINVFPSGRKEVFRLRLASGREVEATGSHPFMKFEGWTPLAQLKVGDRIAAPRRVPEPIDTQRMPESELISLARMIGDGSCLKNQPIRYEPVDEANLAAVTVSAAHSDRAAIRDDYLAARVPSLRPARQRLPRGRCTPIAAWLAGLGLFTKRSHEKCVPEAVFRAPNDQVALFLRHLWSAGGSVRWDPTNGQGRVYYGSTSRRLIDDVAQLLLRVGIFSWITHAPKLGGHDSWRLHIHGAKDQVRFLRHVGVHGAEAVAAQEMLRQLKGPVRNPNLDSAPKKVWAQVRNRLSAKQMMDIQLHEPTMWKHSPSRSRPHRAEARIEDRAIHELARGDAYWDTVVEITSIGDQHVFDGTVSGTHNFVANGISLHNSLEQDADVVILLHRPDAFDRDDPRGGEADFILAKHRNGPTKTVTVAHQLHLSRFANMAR
Kind of experiment: DnaB intein splicing inhibitors, dose response, biochemical, cell-free fluorescence (AID 449749). The experiment is classed as functional.

In experiment [4] the target is T3, Caspase-3 (Homo sapiens, UniProt P42574).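 Note: Dose-response selectivity test against caspase-3 for candidate inhibitors of sentrin-specific proteases (SENPs).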
T3 sequence (P42574 whole entry): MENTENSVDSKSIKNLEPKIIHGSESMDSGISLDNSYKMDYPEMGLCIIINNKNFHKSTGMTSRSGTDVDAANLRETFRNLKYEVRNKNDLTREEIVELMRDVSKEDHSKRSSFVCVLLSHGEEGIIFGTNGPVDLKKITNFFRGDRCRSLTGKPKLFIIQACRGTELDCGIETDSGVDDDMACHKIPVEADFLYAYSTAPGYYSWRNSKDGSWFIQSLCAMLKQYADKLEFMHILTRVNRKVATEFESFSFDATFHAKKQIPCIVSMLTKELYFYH
Format: functional.

The test system of experiment [5] is Streptococcus. Kind of experiment: Group A Streptococcus viability loss, dose response, counter-screen for streptokinase expression inhibitor project, luminescence, BacTiterGlo (AID 1915).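 Note: potency for reduction of bacterial viability or growth.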 Format: functional, organism-based. For orientation: A counterscreen serves to expose hits that act by an unwanted route or on another target.
The subject of experiment [6] is Streptococcus sp. 'group A'. Kind of experiment: growth inhibition of control SK(-) GAS strain, dose response, counter-screen for streptokinase expression inhibitor project, luminescence, kanamycin, BacTiterGlo, confirmation (AID 1900). Format: functional, organism-based.

As usually defined, the IC50 is the midpoint of a concentration-inhibition curve. In general, AC50 refers to the midpoint of the concentration-response curve, whichever way the signal moves. With `O=C1C(Cl)=C(NCc2cccnc2)C(=O)c2ccccc21`, the half-inhibitory concentration (IC50) in experiment [1] was 10.1 µM (active). Moreover, the results for the AC50 in experiment [2] and in experiment [3] were 7.26 µM (active) and 4.75 µM (active), respectively.
For the compound `Nc1ccc(Br)c2cccnc12`, the IC50 in experiment [1] was 39.1 µM (active); in experiment [4] it was 10.4 µM (active).
The term EC50 denotes the concentration that produces a half-maximal response. For the compound `CN(C)c1ncc(C2=C(Cl)C(=O)C(N3CCCC3)=C(Cl)C2=O)s1`, the concentration for half-maximal inhibition (IC50) in experiment [1] was 25 µM (active). In addition, the EC50 in experiment [5] was 135 µM (active); in experiment [6], 24.5 µM (active). Further, the AC50 in experiment [3] is > 380 µM (inactive).
On to `Cc1ccc(C(=O)c2c(C)oc3c2C(=O)C(=O)c2ccccc2-3)cc1`, for which the figures for the IC50 in experiment [1] and in experiment [4] were 8.09 µM (active) and 29.1 µM (active), respectively. Besides, in experiment [2], the half-maximal activity concentration (AC50) was 2.4 µM (active). The EC50 was 13.6 µM (active) in experiment [5] and 0.566 µM (active) in experiment [6].
Regarding `Cc1cnc(NC(=O)c2sc3ccccc3c2Cl)s1`, the IC50 in experiment [4] is 6.67 µM (active).
With `O=C1C(O)=C/C(=N\c2ccccc2O)c2ccccc21`, the results for the half-inhibitory concentration (IC50) in experiment [1] and in experiment [4] were 2.61 µM (active) and 8.23 µM (active), respectively. In addition, the figures for the AC50 in experiment [2] and in experiment [3] were 3.26 µM (active) and 27.4 µM (active), respectively. The EC50 was > 150 µM (not active) in experiment [5] and 3.4 µM (active) in experiment [6].
Regarding `Cc1ccc(Nc2cc(C)nn2-c2nc(C)cc(O)n2)cc1`, the AC50 in experiment [2] was 0.6 µM (active); in experiment [3] it was 13.6 µM (active). The EC50 was 0.065 µM (active) in experiment [5] and < 0.06 µM (active) in experiment [6].
